Results as given in EP1734031A1, “NOVEL 2-(ALPHA-N-PENTANONYL)BENZOETES, THEIR PREPARATION AND USE” (priority 2004, dated 2005).
“And” between values parts separate entries of the source, which are not always exact repeats. Equal values may be shown once.

Key:
[1] = tested on: model rats of middle cerebral artery thrombosis (MCAT); test: Effects on cerebral infarct area of MCAT rats (TTC staining); format: in vivo, SD rats; conditions: for cerebral infarct compared with the model group (in words): 50 mg/kg, P<0.05
in vivo = conditions: mouse, po; for LD50 at 7 days: both, ICR
[2] = tested on: model rats of middle cerebral artery thrombosis (MCAT); test: Effects on neural symptoms of MCAT rats (behavioral score); format: in vivo, SD rats; conditions: for Scores 6 hours: 6 hours after operation; for Scores 6 hours / Scores 24 hours: full mark 4; for Scores 24 hours: 24 hours after operation; for % inhibition at hour 24 / alleviation on neural symptoms at 24 hours after the operation (in words): vs. model group; for alleviation on neural symptoms at 24 hours after the operation (in words): 50 mg/kg, P<0.01 or P<0.05
[3] = tested on: thrombosis of artery-vein bypass in rats; test: Effects on thrombosis of artery-vein bypass in rats; format: in vivo, SD rats; conditions: for Dry-weight of thrombus / Wet-weight of thrombus: once per day for 3 days; for Inhibition (dry-weight of thrombus) / Inhibition (wet-weight of thrombus): vs. thrombus model group
ICR mice = conditions: mouse, in vivo, po, 168 h
[4] = Thermal stability (purity by HPLC); conditions: 10 days at 60°C
Method: Tests were conducted for 10 days at 60°C in accordance with the testing method as described in Pharmacopoeia of P.R. China, 2000 ed., appendix XIX C of part two, "Guideline for testing the stability of medicament: method for testing thermal stability". The purity was determined in accordance with the test described in Pharmacopoeia of P.R. China, 2000 ed., appendix VD of part two, by using HPLC method, C18 column, mobile phase of acetonitrile:0.02M sodium dihydrogen phosphate = 40:60, detecting wavelength of 230 nm, flow rate of 1 ml/min.

[5] = Stability to light (purity by HPLC); conditions: light test, 10 days
Method: Tests were conducted for 10 days in accordance with the testing method as described in Pharmacopoeia of P.R. China, 2000 ed., appendix XIX C of part two, "Guideline for testing the stability of medicament: method for testing stability to light". The purity was determined in accordance with the test described in Pharmacopoeia of P.R. China, 2000 ed., appendix VD of part two, by using HPLC method, C18 column, mobile phase of acetonitrile:0.02M sodium dihydrogen phosphate = 40:60, detecting wavelength of 230 nm, flow rate of 1 ml/min.

[6] = Stability of aqueous solution (decomposed products by HPLC); format: physicochemical; conditions: aqueous solution 0.2 mg/ml, exposed to water for 24 hours
[7] = 50 mg/kg by gavage, 24 hours after operation
[8] = 50 mg/kg by gavage, vs. model group
[9] = 100 mg/kg by gavage, 24 hours after operation
[10] = 100 mg/kg by gavage, vs. model group
[11] = 200 mg/kg by gavage, 24 hours after operation
[12] = 200 mg/kg by gavage, vs. model group

Row | Structure (SMILES) | Cerebral infarct tissue weight/total brain weight [1, 7] | Inhibition (cerebral infarct) [1, 8] | Cerebral infarct tissue weight/total brain weight [1, 9] | Inhibition (cerebral infarct) [1, 10] | Cerebral infarct tissue weight/total brain weight [1, 11] | Inhibition (cerebral infarct) [1, 12] | Scores 6 hours ([2]; 50 mg/kg by gavage) | Scores 24 hours ([2]; 50 mg/kg by gavage) | % inhibition at hour 24 ([2]; 50 mg/kg by gavage) | alleviation on neural symptoms at 24 hours after the operation (in words) [2] | Scores 6 hours ([2]; 100 mg/kg by gavage) | Scores 24 hours ([2]; 100 mg/kg by gavage) | % inhibition at hour 24 ([2]; 100 mg/kg by gavage) | Scores 6 hours ([2]; 200 mg/kg by gavage) | Scores 24 hours ([2]; 200 mg/kg by gavage) | % inhibition at hour 24 ([2]; 200 mg/kg by gavage) | Dry-weight of thrombus ([3]; 50 mg/kg by gavage) | Wet-weight of thrombus ([3]; 50 mg/kg by gavage) | Inhibition (dry-weight of thrombus) ([3]; 50 mg/kg) | Inhibition (wet-weight of thrombus) ([3]; 50 mg/kg) | also measured
1 | CCCCC1OC(=O)c2ccccc21 (racemic) [DL-3-n-butylphthalide] | 5.66±2.81% | 23.62% | 5.81±1.49 % | 26.83% | 5.52±1.78 % | 27.46% | 3.36±0.81 | 3.09±0.54 | 15.11% | significantly alleviation | 3.36±0.50 | 3.09±0.70 | 17.16% | 3.36±0.67 | 3.00±0.89 | 19.57% |  |  |  |  | LD50 at 168 h (in vivo): 2190 mg/kg
2 | CCCCC(=O)c1ccccc1C(=O)O.CCCCC(=O)c1ccccc1C(=O)O.c1ccc(CNCCNCc2ccccc2)cc1 [2-(α-n-pentanonyl)benzoate of N,N'-dibenzylethylene diamine] | 5.14±2.17 % | 30.63% | 4.68±1.69 % | 41.06% | 4.60±1.26 % | 39.55% | 3.45±0.69 | 2.91±0.70 |  |  | 3.45±0.52 | 2.36±0.67 |  | 3.27±0.79 | 2.55±0.52 |  | 39.0 ± 10.8 mg | 207.1 ± 45.3 mg | 23.98% | 20.10% | Dry-weight of thrombus ([3]; 100 mg/kg by gavage): 29.9 ± 13.6 mg; Wet-weight of thrombus ([3]; 100 mg/kg by gavage): 157.9 ± 67.9 mg; Inhibition (dry-weight of thrombus) ([3]; 100 mg/kg): 41.72%; Inhibition (wet-weight of thrombus) ([3]; 100 mg/kg): 39.08%; Dry-weight of thrombus ([3]; 200 mg/kg by gavage): 32.3 ± 12.5 mg; Wet-weight of thrombus ([3]; 200 mg/kg by gavage): 191.7 ± 34.8 mg; Inhibition (dry-weight of thrombus) ([3]; 200 mg/kg): 37.04%; Inhibition (wet-weight of thrombus) ([3]; 200 mg/kg): 26.04%; cerebral infarct compared with the model group (in words) [1]: significantly reduced; LD50 value (ICR mice): 3078.8 mg/kg; decomposed product (thermal stability) [4]: no decomposed product; decomposed product (stability to light) [5]: no decomposed product
3 | CCC/C=C1/OC(=O)c2ccccc21 [3-n-butenylphthalide] |  |  |  |  |  |  | 3.50±0.53 | 3.40±0.52 | 6.59% |  | 3.36±0.81 | 2.91±0.70 | 21.98% | 3.36±0.67 | 3.00±0.63 | 19.57% | 28.6 ± 9.6 mg | 169.9 ± 28.8 mg | 24.74% | 19.59% | Dry-weight of thrombus ([3]; 100 mg/kg by gavage): 22.9 ± 11.9 mg; Wet-weight of thrombus ([3]; 100 mg/kg by gavage): 137.5 ± 47.4 mg; Inhibition (dry-weight of thrombus) ([3]; 100 mg/kg): 39.74%; Inhibition (wet-weight of thrombus) ([3]; 100 mg/kg): 34.93%; Dry-weight of thrombus ([3]; 200 mg/kg by gavage): 24.9 ± 12.3 mg; Wet-weight of thrombus ([3]; 200 mg/kg by gavage): 141.6 ± 41.2 mg; Inhibition (dry-weight of thrombus) ([3]; 200 mg/kg): 34.47%; Inhibition (wet-weight of thrombus) ([3]; 200 mg/kg): 32.99%; Cerebral infarct tissue weight/total brain weight ([1]; rat, in vivo): 5.90±1.50% and 5.49±2.14 %; Inhibition (cerebral infarct) ([1]; rat, in vivo): 20.38% and 28.84% and 27.86%; LD50 at 168 h (in vivo): 2570 mg/kg
4 | CCCCC(O)c1ccccc1C(=O)O (stereo not drawn) [Calcium 2-(α-hydroxypentyl)benzoate] | 6.39±2.33% | 13.77% | 5.82±1.90 % | 26.70% | 5.41±1.77 % | 28.91% | 3.45±0.52 | 3.36±0.50 | 7.69% |  | 3.55±0.52 | 3.09±0.70 | 17.16% | 3.45±0.52 | 2.91±0.54 | 21.98% |  |  |  |  | 
5 | CCCCC(O)c1ccccc1C(=O)O (stereo not drawn) [N,N'-dibenzylethylenediamine 2-(α-hydroxypentyl)benzoate] [listing 1 of 2 here] |  |  |  |  |  |  |  |  |  |  |  |  |  |  |  |  |  |  |  |  | LD50 at 168 h (in vivo): 2810 mg/kg
6 | CCCCC(O)c1ccccc1C(=O)O (stereo not drawn) [N,N'-dibenzylethylenediamine 2-(α-hydroxypentyl)benzoate] [listing 2 of 2 here] | 5.85±2.32% | 21.05% | 5.50±1.82 % | 30.73% | 5.09±2.14 % | 33.11% |  | 3.09±0.54 | 15.11% | significantly alleviation |  | 2.91±0.70 |  | 3.36±0.67 | 2.82±0.87 | 24.40% |  |  |  |  | 
7 | CCCCC(=O)c1ccccc1C(=O)[O-].[K+] [Potassium 2-(α-n-pentanonyl)benzoate, potassium 2-(α-n-pentanonyl)benzoate] | 5.63±1.52 % | 24.02% | 5.09±2.04 % | 35.89% | 4.38±1.54 % | 42.44% | 3.27±0.79 | 2.91±0.70 | 20.05% | significantly alleviation | 3.36±0.67 | 2.82±0.75 | 24.40% | 3.20±0.63 | 2.10 ± 0.32 s | 43.70% | 38.3 ± 15.4 mg | 208.8 ± 45.3 mg | 25.34% | 19.44% | Dry-weight of thrombus ([3]; 100 mg/kg by gavage): 35.6 ± 14.0 mg; Wet-weight of thrombus ([3]; 100 mg/kg by gavage): 192.6 ± 41.2 mg; Inhibition (dry-weight of thrombus) ([3]; 100 mg/kg): 30.60%; Inhibition (wet-weight of thrombus) ([3]; 100 mg/kg): 25.69%; Dry-weight of thrombus ([3]; 200 mg/kg by gavage): 28.3 ± 16.3 mg; Wet-weight of thrombus ([3]; 200 mg/kg by gavage): 157.0 ± 51.4 mg; Inhibition (dry-weight of thrombus) ([3]; 200 mg/kg): 44.8%; Inhibition (wet-weight of thrombus) ([3]; 200 mg/kg): 39.43%; Inhibition (dry-weight of thrombus) ([3]; 200 mg/kg, listed as potassium 2-(α-n-pentanonyl)benzoate): 44.83%; cerebral infarct compared with the model group (in words) [1]: significantly reduced; decomposed product [6]: no decomposed product; LD50 at 7 days (in vivo): 2720 mg/kg; decomposed product (thermal stability) [4]: no decomposed product; decomposed product (stability to light) [5]: no decomposed product
8 | CCCCC(=O)c1ccccc1C(=O)[O-].[Na+] [Sodium 2-(α-n-pentanonyl)benzoate, sodium 2-(α-n-pentanonyl)benzoate] | 5.26±2.26 % | 29.01% | 4.99±1.83 % | 37.16% | 5.19±2.40 % | 31.80% | 3.40±0.70 | 3.00±0.67 | 17.58% | significantly alleviation | 3.10±0.74 | 2.80±0.79 | 24.93% | 3.27±0.65 | 2.82±0.40 | 24.40% | 26.2 ± 9.7 mg | 138.8 ± 41.1 mg | 31.05% | 34.31% | Dry-weight of thrombus ([3]; 100 mg/kg by gavage): 19.7 ± 7.8 mg; Wet-weight of thrombus ([3]; 100 mg/kg by gavage): 115.4 ± 42.3 mg; Inhibition (dry-weight of thrombus) ([3]; 100 mg/kg): 48.16%; Inhibition (wet-weight of thrombus) ([3]; 100 mg/kg): 45.39%; Dry-weight of thrombus ([3]; 200 mg/kg by gavage): 22.4 ± 10.1 mg; Wet-weight of thrombus ([3]; 200 mg/kg by gavage): 131.1 ± 48.0 mg; Inhibition (dry-weight of thrombus) ([3]; 200 mg/kg): 41.05%; Inhibition (wet-weight of thrombus) ([3]; 200 mg/kg): 37.96%; cerebral infarct compared with the model group (in words) [1]: significantly reduced; decomposed product [6]: no decomposed product; LD50 at 7 days (in vivo): 2650 mg/kg; decomposed product (thermal stability) [4]: no decomposed product; decomposed product (stability to light) [5]: no decomposed product
